Source: PubChem BioAssay (NCI)
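Exposure lasted 48 hours, with cells grown in 96-well plates and compounds tested at five concentrations. The concentration for 50% growth inhibition is given as GI50. TGI: total growth inhibition.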

Columns and labels:
Test in all cases: inhibition of tumour cell growth, NCI panel, 48 h
SF-295 CNS = system: SF-295 CNS
SK-MEL-28 melanoma = system: SK-MEL-28 melanoma
HCT-15 colon = system: HCT-15 colon
786-0 renal = system: 786-0 renal
TK-10 renal = system: TK-10 renal
HOP-92 NSCLC = system: HOP-92 NSCLC
HS 578T breast = system: HS 578T breast
OVCAR-4 ovarian = system: OVCAR-4 ovarian
U251 CNS = system: U251 CNS
K-562 leukemia = system: K-562 leukemia
SW-620 colon = system: SW-620 colon
MDA-MB-231 breast = system: MDA-MB-231 breast
COLO 205 colon = system: COLO 205 colon
T-47D breast = system: T-47D breast
CAKI-1 renal = system: CAKI-1 renal
NCI/ADR-RES ovarian = system: NCI/ADR-RES ovarian
NCI-H522 lung = system: NCI-H522 lung
HT29 colon = system: HT29 colon
CCRF-CEM leukemia = system: CCRF-CEM leukemia
HOP-62 NSCLC = system: HOP-62 NSCLC
NCI-H460 lung = system: NCI-H460 lung
A549 NSCLC = system: A549 NSCLC
MDA-MB-435 = system: MDA-MB-435
MALME-3M melanoma = system: MALME-3M melanoma
BT-549 breast = system: BT-549 breast
OVCAR-5 ovarian = system: OVCAR-5 ovarian
RPMI-8226 leukemia = system: RPMI-8226 leukemia
EKVX NSCLC = system: EKVX NSCLC
MOLT-4 leukemia = system: MOLT-4 leukemia
UO-31 renal = system: UO-31 renal
DU-145 prostate = system: DU-145 prostate
SN12C renal = system: SN12C renal
NCI-H23 lung = system: NCI-H23 lung
RXF 393 renal = system: RXF 393 renal
SF-539 CNS = system: SF-539 CNS
KM12 colon = system: KM12 colon
NCI-H226 lung = system: NCI-H226 lung
M14 melanoma = system: M14 melanoma
SK-MEL-5 melanoma = system: SK-MEL-5 melanoma
PC-3 prostate = system: PC-3 prostate
LOX IMVI melanoma = system: LOX IMVI melanoma
IGROV1 ovarian = system: IGROV1 ovarian
HCT-116 colon = system: HCT-116 colon
OVCAR-8 ovarian = system: OVCAR-8 ovarian
MCF7 breast = system: MCF7 breast
UACC-62 melanoma = system: UACC-62 melanoma
OVCAR-3 ovarian = system: OVCAR-3 ovarian
UACC-257 melanoma = system: UACC-257 melanoma
SNB-75 CNS = system: SNB-75 CNS
ACHN renal = system: ACHN renal
SR leukemia = system: SR leukemia
A498 renal = system: A498 renal
SNB-19 CNS = system: SNB-19 CNS
SF-268 CNS = system: SF-268 CNS
SK-MEL-2 melanoma = system: SK-MEL-2 melanoma

COc1cc2c(/C=C3\C(=O)N(C)c4ccc(O)cc43)c[nH]c2cc1C
GI50 (SF-295 CNS): 2.64 µM | TGI (SF-295 CNS): 17.3 µM | GI50 (SK-MEL-28 melanoma): 2.99 µM | TGI (SK-MEL-28 melanoma): 28.1 µM | GI50 (HCT-15 colon): 4.75 µM | TGI (HCT-15 colon): 67.8 µM | GI50 (786-0 renal): 3.95 µM | TGI (786-0 renal): 21 µM | GI50 (TK-10 renal): 6.04 µM | TGI (TK-10 renal): 32.6 µM | GI50 (HOP-92 NSCLC): 14.3 µM | TGI (HOP-92 NSCLC): 34.3 µM | GI50 (HS 578T breast): 4.33 µM | TGI (HS 578T breast): > 100 µM | GI50 (OVCAR-4 ovarian): 5.3 µM | TGI (OVCAR-4 ovarian): > 100 µM | GI50 (U251 CNS): 3.35 µM | TGI (U251 CNS): 32.2 µM | GI50 (K-562 leukemia): 4.67 µM | TGI (K-562 leukemia): > 100 µM | GI50 (SW-620 colon): 3.83 µM | TGI (SW-620 colon): 34 µM | GI50 (MDA-MB-231 breast): 10.9 µM | TGI (MDA-MB-231 breast): 44.5 µM | GI50 (COLO 205 colon): 3.7 µM | TGI (COLO 205 colon): 16.8 µM | GI50 (T-47D breast): 4.05 µM | TGI (T-47D breast): 39.7 µM | GI50 (CAKI-1 renal): 3.79 µM | TGI (CAKI-1 renal): 22.2 µM | GI50 (NCI/ADR-RES ovarian): 4.17 µM | TGI (NCI/ADR-RES ovarian): 25.9 µM | GI50 (NCI-H522 lung): 1.47 µM | TGI (NCI-H522 lung): 5.2 µM | GI50 (HT29 colon): 3.67 µM | TGI (HT29 colon): > 100 µM | GI50 (CCRF-CEM leukemia): 3.35 µM | TGI (CCRF-CEM leukemia): 35.9 µM | GI50 (HOP-62 NSCLC): 5.98 µM | TGI (HOP-62 NSCLC): 20.1 µM | GI50 (NCI-H460 lung): 2.62 µM | TGI (NCI-H460 lung): 7.79 µM | GI50 (A549 NSCLC): 3.05 µM | TGI (A549 NSCLC): 18.1 µM | GI50 (MDA-MB-435): 0.373 µM | TGI (MDA-MB-435): 1.5 µM | GI50 (MALME-3M melanoma): 2.44 µM | TGI (MALME-3M melanoma): 7.08 µM | GI50 (BT-549 breast): 1.86 µM | TGI (BT-549 breast): 5.44 µM | GI50 (OVCAR-5 ovarian): 22 µM | TGI (OVCAR-5 ovarian): 42.5 µM | GI50 (RPMI-8226 leukemia): 3.54 µM | TGI (RPMI-8226 leukemia): 17.2 µM | GI50 (EKVX NSCLC): 4.58 µM | TGI (EKVX NSCLC): 24.1 µM | GI50 (MOLT-4 leukemia): 3.3 µM | TGI (MOLT-4 leukemia): 10.6 µM | GI50 (UO-31 renal): 3.07 µM | TGI (UO-31 renal): 12.6 µM | GI50 (DU-145 prostate): 3.56 µM | TGI (DU-145 prostate): 16.1 µM | GI50 (SN12C renal): 14.6 µM | TGI (SN12C renal): 47.2 µM | GI50 (NCI-H23 lung): 8.77 µM | TGI (NCI-H23 lung): 38.2 µM | GI50 (RXF 393 renal): 4.89 µM | TGI (RXF 393 renal): 45.2 µM | GI50 (SF-539 CNS): 1.56 µM | TGI (SF-539 CNS): 3.74 µM | GI50 (KM12 colon): 0.854 µM | TGI (KM12 colon): 3.52 µM | GI50 (NCI-H226 lung): 31.1 µM | TGI (NCI-H226 lung): 75.4 µM | GI50 (M14 melanoma): 2.9 µM | TGI (M14 melanoma): 8.4 µM | GI50 (SK-MEL-5 melanoma): 3.87 µM | TGI (SK-MEL-5 melanoma): 13.2 µM | GI50 (PC-3 prostate): 3.5 µM | TGI (PC-3 prostate): 15.6 µM | GI50 (LOX IMVI melanoma): 2.36 µM | TGI (LOX IMVI melanoma): > 100 µM | GI50 (IGROV1 ovarian): 3.7 µM | TGI (IGROV1 ovarian): 22.3 µM | GI50 (HCT-116 colon): 3.16 µM | TGI (HCT-116 colon): 16 µM | GI50 (OVCAR-8 ovarian): 3.38 µM | TGI (OVCAR-8 ovarian): 14.5 µM | GI50 (MCF7 breast): 2.28 µM | TGI (MCF7 breast): 7.35 µM | GI50 (UACC-62 melanoma): 9.73 µM | TGI (UACC-62 melanoma): 30.3 µM | GI50 (OVCAR-3 ovarian): 3.86 µM | TGI (OVCAR-3 ovarian): 22.6 µM | GI50 (UACC-257 melanoma): 2.54 µM | TGI (UACC-257 melanoma): 7.01 µM | GI50 (SNB-75 CNS): 5.7 µM | TGI (SNB-75 CNS): 37 µM | GI50 (ACHN renal): 3.42 µM | TGI (ACHN renal): 26.6 µM | GI50 (SR leukemia): 2.88 µM | TGI (SR leukemia): > 100 µM | GI50 (A498 renal): 20.8 µM | TGI (A498 renal): 39.6 µM | GI50 (SNB-19 CNS): 6.16 µM | TGI (SNB-19 CNS): 52.9 µM | GI50 (SF-268 CNS): 5.29 µM | TGI (SF-268 CNS): 46.4 µM | GI50 (SK-MEL-2 melanoma): 2.12 µM | TGI (SK-MEL-2 melanoma): 6.33 µM
